Experimental data published in patent US8563551B2, “Method for preventing or treating a disease related to the glucocorticoid receptor” (Santen Pharmaceutical Co., Ltd., priority 2006, dated 2013).

What follows are compounds tested against T1, Recombinant human GR (Homo sapiens, UniProt P04150) (assay: GR competitor assay (receptor competitor assay by fluorescence polarization, Invitrogen kit P2816)). Details: 20 μM test compound solution (10 μL per well plus 5 μL 4×GS1 and 5 μL 4×GR); relative to 2 mM dexamethasone positive control; ratios of 100% or more are indicated by 100%; read-out: GR Binding ratio (%).
T1 construct: purchased Invitrogen P2816
T1 sequence (P04150 1-777): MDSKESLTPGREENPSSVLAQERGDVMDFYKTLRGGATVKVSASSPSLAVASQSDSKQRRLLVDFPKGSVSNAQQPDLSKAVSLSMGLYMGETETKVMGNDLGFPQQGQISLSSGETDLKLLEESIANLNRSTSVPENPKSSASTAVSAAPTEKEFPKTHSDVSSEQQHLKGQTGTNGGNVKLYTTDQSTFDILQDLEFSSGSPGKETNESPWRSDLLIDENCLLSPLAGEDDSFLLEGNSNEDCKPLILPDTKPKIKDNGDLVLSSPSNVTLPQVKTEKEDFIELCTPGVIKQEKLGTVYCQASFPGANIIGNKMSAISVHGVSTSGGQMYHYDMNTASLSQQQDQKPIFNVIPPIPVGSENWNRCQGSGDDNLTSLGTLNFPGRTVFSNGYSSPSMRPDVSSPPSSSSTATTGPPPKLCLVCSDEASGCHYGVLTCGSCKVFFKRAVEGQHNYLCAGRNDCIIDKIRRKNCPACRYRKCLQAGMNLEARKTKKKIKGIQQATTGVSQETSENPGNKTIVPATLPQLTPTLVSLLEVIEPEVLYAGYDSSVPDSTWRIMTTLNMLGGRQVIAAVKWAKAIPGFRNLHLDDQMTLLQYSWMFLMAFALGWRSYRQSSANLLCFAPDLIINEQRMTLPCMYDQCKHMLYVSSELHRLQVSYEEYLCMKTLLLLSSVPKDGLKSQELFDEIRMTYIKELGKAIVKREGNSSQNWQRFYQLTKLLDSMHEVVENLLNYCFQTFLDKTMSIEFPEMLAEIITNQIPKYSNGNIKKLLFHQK
Method: In order to evaluate a binding activity to GR, a receptor competitor assay was carried out by a fluorescence polarization method. In the assay, a GR competitor assay kit (manufactured by Invitrogen, cat No. P2816) was used, and a procedure was carried out according to the protocol attached to the kit. Hereinafter, the specific method will be described.
GR screening buffer: A buffer containing 10 mM potassium phosphate (pH 7.4), 20 mM sodium molybdate (Na2MoO4), 0.1 mM ethylene diamine tetraacetic acid (EDTA), 5 mM dithiothreitol (DTT), 0.1 mM stabilizing peptide and 2% dimethylsulfoxide was prepared.
4×GS1 solution: Fluormone™ GS1, which is a fluorescent glucocorticoid ligand, was diluted with GR screening buffer, whereby a 4 nM solution was prepared.
4×GR solution: Recombinant human GR was diluted with GR screening buffer, whereby a 16 nM solution was prepared.
After a test compound was dissolved in dimethylsulfoxide, the resulting solution was diluted with GR screening buffer, whereby a 20 μM test compound solution was prepared.
1) The test compound solution was added in an amount of 10 μL into each well of a 384-well plate, and then, 4×GS1 solution and 4×GR solution were added in an amount of 5 μL into each well, respectively.
2) The plate was incubated in a dark place at room temperature for 2 to 4 hours.
3) By using a multimode plate reader, Analyst™ HT (manufactured by LJL Biosystems), fluorescence polarization of each well was measured. As the blank, a well containing GR screening buffer in place of the test compound and 4×GS1 solution was used.
4) The same procedure as that in the above 1) to 3) was carried out except that GR screening buffer was used in place of the test compound solution, and the obtained result was taken as the negative control.
5) The same procedure as that in the above 1) to 3) was carried out except that 2 mM dexamethasone was used in place of the test compound solution, and the obtained result was taken as the positive control.
A GR binding ratio (%) was calculated from the following equation. GR binding ratio(%)=100×[1−(fluorescence polarization of test compound solution−fluorescence polarization of positive control solution)/(fluorescence polarization of negative control solution fluorescence polarization of positive control solution)] (Test Results and Discussion)
For `COc1ccc(C(=O)OCc2c(-c3ccc(OC(=O)c4cccnc4)cc3OC)ccc3c2C(C)=CC(C)(C)N3)cc1` [Compound 1-34, 5-(4-Methoxybenzoyloxymethyl)-6-[2-methoxy-4-(pyridin-3-ylcarbonyloxy)phenyl]-2,2,4-trimethyl-1,2-dihydroquinoline], the inhibition at 20 µM (stock) was 95%.
With `COC(=O)Oc1ccc(-c2ccc3c(c2COC(=O)c2ccc(C)s2)C(C)=CC(C)(C)N3)c(OC)c1` [Compound 3-1, 6-(2-Methoxy-4-methoxycarbonyloxyphenyl)-5-(5-methylthiophen-2-ylcarbonyloxymethyl)-2,2,4-trimethyl-1,2-dihydroquinoline] the inhibition at 20 µM (stock) was 91%.
With `CCCC(=O)Oc1ccc(-c2ccc3c(c2COC(=O)c2ccc(C)s2)C(C)=CC(C)(C)N3)c(OC)c1` [Compound 1-11, 6-(4-Butyryloxy-2-methoxyphenyl)-5-(5-methylthiophen-2-ylcarbonyloxymethyl)-2,2,4-trimethyl-1,2-dihydroquinoline] the inhibition at 20 µM (stock) was 100%.
`COc1cc(OC(=O)c2ccc(C)cc2)ccc1-c1ccc2c(c1COC(=O)c1ccc(C)s1)C(C)=CC(C)(C)N2` [Compound 1-47, 6-[2-Methoxy-4-(4-methylbenzoyloxy)phenyl]-5-(5-methylthiophen-2-ylcarbonyloxymethyl)-2,2,4-trimethyl-1,2-dihydroquinoline] showed an inhibition at 20 µM (stock) of 96%.
For `COc1cc(OC(=O)c2cccnc2OC)ccc1-c1ccc2c(c1COC(=O)c1ccc(C)s1)C(C)=CC(C)(C)N2` [Compound 1-45, 6-[2-Methoxy-4-(2-methoxypyridin-3-ylcarbonyloxy)phenyl]-5-(5-methylthiophen-2-ylcarbonyloxymethyl)-2,2,4-trimethyl-1,2-dihydroquinoline], the inhibition at 20 µM (stock) was 100%.
`COc1ccc(C(=O)Oc2ccc(-c3ccc4c(c3COC(=O)c3ccc(C)s3)C(C)=CC(C)(C)N4)c(OC)c2)cc1` [Compound 1-22, 6-[2-Methoxy-4-(4-methoxybenzoyloxy)phenyl]-5-(5-methylthiophen-2-ylcarbonyloxymethyl)-2,2,4-trimethyl-1,2-dihydroquinoline] gave an inhibition at 20 µM (stock) of 91%.
`COc1cc(OC(=O)c2ccc(F)cc2)ccc1-c1ccc2c(c1COC(=O)c1ccc(C)s1)C(C)=CC(C)(C)N2` [Compound 1-48, 6-[4-(4-Fluorobenzoyloxy)-2-methoxyphenyl]-5-(5-methylthiophen-2-ylcarbonyloxymethyl)-2,2,4-trimethyl-1,2-dihydroquinoline] was tested, and the inhibition at 20 µM (stock) was 96%.
With `COc1cc(OC(=O)C(C)C)ccc1-c1ccc2c(c1COC(=O)c1ccc(C)s1)C(C)=CC(C)(C)N2` [Compound 1-43, 6-(4-Isopropylcarbonyloxy-2-methoxyphenyl)-5-(5-methylthiophen-2-ylcarbonyloxymethyl)-2,2,4-trimethyl-1,2-dihydroquinoline] the inhibition at 20 µM (stock) was 100%.
Work on `COc1cc(OC(=O)c2cncnc2)ccc1-c1ccc2c(c1COC(=O)c1ccc(C)s1)C(C)=CC(C)(C)N2` [Compound 1-23, 6-[2-Methoxy-4-(pyrimidin-5-ylcarbonyloxy)phenyl]-5-(5-methylthiophen-2-ylcarbonyloxymethyl)-2,2,4-trimethyl-1,2-dihydroquinoline] yielded an inhibition at 20 µM (stock) of 94%.
`COc1ccccc1C(=O)Oc1ccc(-c2ccc3c(c2COC(=O)c2ccc(C)cc2)C(C)=CC(C)(C)N3)c(OC)c1` [Compound 1-7, 6-[2-Methoxy-4-(2-methoxybenzoyloxy)phenyl]-5-(4-methylbenzoyloxymethyl)-2,2,4-trimethyl-1,2-dihydroquinoline] was tested, and the inhibition at 20 µM (stock) was 100%.
In the case of `COc1cc(OC(=O)c2ccc(Cl)cc2)ccc1-c1ccc2c(c1COC(=O)c1ccc(C)s1)C(C)=CC(C)(C)N2` [Compound 1-17, 6-[4-(4-Chlorobenzoyloxy)-2-methoxyphenyl]-5-(5-methylthiophen-2-ylcarbonyloxymethyl)-2,2,4-trimethyl-1,2-dihydroquinoline], the inhibition at 20 µM (stock) is reported as 84%.
